Key:
L1210 murine leukemia = experiment: in vitro cytotoxicity to L1210 murine leukemia; assay type: cell-based; settings: potency relative to Et 743
Excerpt: In view of the exceptional antitumor properties of the natural ecteinascidins, the present invention has studied the antitumor activities of the semi-synthetic analogs prepared herein.

[1] = tested on: P388 murine leukemia, B16 melanoma, Lewis lung carcinoma, and several human tumor xenograft models; settings: activity against P388, B16, Lewis lung, human tumor xenografts in mice; cited from earlier work
B16 melanoma = settings: recent experiments, NCI evaluation; cited from earlier work

Structure (SMILES) | IC50 (Et 743)/IC50 (L1210 murine leukemia) | efficacy in vivo [1] | survivors 60 days following infection with B16 melanoma (B16 melanoma)
COC(=O)C(C(=O)OC)[C@H]1C2Cc3cc(C)c(OC)c(O)c3C(C3C4SC[C@]5(NCCc6cc(O)c(OC)cc65)C(=O)OCC(c5c6c(c(C)c(OC(C)=O)c54)OCO6)N31)N2C (stereo partly drawn) [Et 875] | 1 | – | –
COc1cc2c(cc1O)CCNC21CSC2c3c(OC(C)=O)c(C)c4c(c3C(COC1=O)N1C(O)C3Cc5cc(C)c(OC)c(O)c5C(C21)N3Cc1ccc(CN2C3Cc5cc(C)c(OC)c(O)c5C2C2C5SCC6(NCCc7cc(O)c(OC)cc76)C(=O)OCC(c6c7c(c(C)c(OC(C)=O)c65)OCO7)N2C3O)cc1)OCO4 (stereo not drawn) [Et 1560] | 0.25 | – | –
COc1cc2c(cc1O)CCN[C@]21CSC2c3c(OC(C)=O)c(C)c4c(c3C(COC1=O)N1C2C2c3c(cc(C)c(OC)c3O)CC([C@@H]1O)N2C)OCO4 (stereo partly drawn) [Et 743] | – | promising efficacy in vivo | –
COc1c(C)cc2c(c1O)[C@H]1N[C@@H](C2)[C@H](O)N2[C@H]1[C@@H]1SC[C@]3(NCCc4c3[nH]c3ccccc43)C(=O)OC[C@H]2c2c3c(c(C)c(OC(C)=O)c21)OCO3 [Et 722] | – | promising efficacy in vivo | –
COc1cc2c(cc1O)CCN(C)[C@]21CSC2c3c(OC(C)=O)c(C)c4c(c3C(COC1=O)N1C2C2c3c(cc(C)c(OC)c3O)CC([C@@H]1O)N2C)OCO4 (stereo partly drawn) [Et 757] | 50 | – | –
COc1cc2c(cc1O)CCN[C@]21CSC2c3c(OC(C)=O)c(C)c4c(c3C(COC1=O)N1C2C2NC(Cc3cc(C)c(OC)c(O)c32)[C@@H]1O)OCO4 (stereo partly drawn) [Et 729] | 10 | promising efficacy in vivo | 8 of 10
COc1cc2c(cc1O)CCN(C)[C@]21CSC2c3c(OC(C)=O)c(C)c4c(c3C(COC1=O)N1C2C2NC(Cc3cc(C)c(OC)c(O)c32)[C@@H]1O)OCO4 (stereo partly drawn) [Iso-Et 743] | 17 | – | –

— patent publication US6124293A, “Semi-synthetic ecteinascidins” (The Board of Trustees of the University of Illinois, priority 1999, dated 2000)
